According to patent US9833423B2 (KOREA RESEARCH INSTITUTE OF CHEMICAL TECHNOLOGY, priority 2011, dated 2017):
Converted amounts (≈) assume the structure as drawn.

What was measured:
[1] = in vitro; settings: human

For `CSc1ccc(C2(O)C(=O)c3ccccc3C2=O)cc1` [Example 58], the melting point was 153 to 155 °C and the CC50 ([1]; CC50) was 47.8 µg/mL (≈ 168 µM).
For `COC1(c2ccc(C(C)C)cc2OCc2ccccc2)C(=O)c2ccccc2C1=O` [Example 25, 2-(2-Benzyloxy-4-isopropyl-phenyl)-2-methoxy-indan-1,3-dione], the melting point was 140 to 144 °C and the CC50 ([1]; CC50) was > 100 µg/mL.
`CC(C)c1ccc(C2(O)Cc3ccccc3C2=O)c(O)c1` (centres unmarked) [Example 51, 2-Hydroxy-2-(2-hydroxy-4-isopropylphenyl)-2,3-dihydro-1H-inden-1-one] gave a melting point of 144 to 146 °C and a CC50 ([1]; CC50) of 9.34 µg/mL (≈ 33.1 µM).
In the case of `COc1cc(C(C)C)ccc1C1(NC(C)=O)C(=O)c2cccc(NC(C)=O)c2C1=O` (centres unmarked) [Example 67, N,N′-(2-(4-Isopropyl-2-methoxyphenyl)-1,3-dioxo-2,3-dihydro-1H-inden-2,4-diyl)diacetamide], the melting point is reported as 241 to 243 °C and the CC50 ([1]; CC50) is reported as 54.6 µg/mL (≈ 134 µM).
In the case of `O=C1c2ccccc2C(=O)C1(O)c1ncc(Cl)cc1O` [Example 73, 2-(5-Chloro-3-hydroxypyridin-2-yl)-2-hydroxy-1H-inden-1,3(2H)-dione], the CC50 ([1]; CC50) is reported as > 100 µg/mL.
Compound `COc1cc(C(C)C)ccc1C1(N)C(=O)c2cccc(NC(C)=O)c2C1=O` (centres unmarked) [Example 66, N-(2-Amino-2-(4-isopropyl-2-methoxyphenyl)-1,3-dioxo-2,3-dihydro-1H-inden-4-yl)acetamide] has a melting point of 183 to 185 °C and a CC50 ([1]; CC50) of 26.7 µg/mL (≈ 72.8 µM).
Compound `COc1cc(C(C)C)ccc1C1(NC(=O)OC(C)C)C(=O)c2ccccc2C1=O` [Example 62, Isopropyl 2-(4-isopropyl-2-methoxyphenyl)-1,3-dioxo-2,3-dihydro-1H-inden-2-ylcarbamate] has a melting point of 159 to 161 °C and a CC50 ([1]; CC50) of 11.3 µg/mL (≈ 28.5 µM).
For `COc1cc(NC(=O)C(C)C)c(C2(O)C(=O)c3cccc(N)c3C2=O)cc1OC` (centres unmarked) [Example 107, N-[2-(4-Amino-2-hydroxy-1,3-dioxo-indan-2-yl)-4,5-dimethoxy-phenyl]-isobutyramide], the CC50 ([1]; Picorna-virus CC50) was > 100 µg/mL.
With `Cc1cc(C2(O)C(=O)c3ccccc3C2=O)cc(C)c1O` [Example 26, 2-Hydroxy-2-(4-hydroxy-3,5-dimethyl-phenyl)-indan-1,3-dione] the melting point was 210 to 213 °C and the CC50 ([1]; CC50) was > 100 µg/mL.
Compound `COc1cc(C(C)C)ccc1C1(O)C(=O)c2c(N)ccc(N)c2C1=O` [Example 46, 4,7-Diamino-2-hydroxy-2-(4-isopropyl-2-methoxyphenyl)-2H-inden-1,3-dione] has a melting point of 243 to 247 °C and a CC50 ([1]; CC50) of 64 µg/mL (≈ 188 µM).
With `Cc1cc(C2(O)C(=O)c3ccccc3C2=O)c(C)cc1O` [Example 35, 2-Hydroxy-2-(4-hydroxy-2,5-dimethylphenyl)-1H-inden-1,3(2H)-dione] the melting point was 228 to 230 °C and the CC50 ([1]; CC50) was 59.8 µg/mL (≈ 212 µM).
In the case of `COc1cc(C(C)C)ccc1C1(O)C(=O)c2ccc(N)c(N)c2C1=O` (centres unmarked) [Example 47, 4,5-Diamino-2-hydroxy-2-(4-isopropyl-2-methoxyphenyl)-2H-inden-1,3-dione], the melting point is reported as 272 to 274 °C and the CC50 ([1]; CC50) is reported as 50.9 µg/mL (≈ 150 µM).
For `CC(=O)c1ccc(C2(O)C(=O)c3ccccc3C2=O)c(O)c1` [Example 20, 2-(4-Acetyl-2-hydroxy-phenyl)-2-hydroxy-indan-1,3-dione], the melting point was 177 to 180 °C and the CC50 ([1]; CC50) was > 100 µg/mL.
In the case of `CCN(CC)C(=O)Oc1cc(C(C)C)ccc1C1(OC(=O)N(CC)CC)C(=O)c2ccccc2C1=O` [Example 33, Diethyl-carbamic acid 2-(2-diethylcarbamoyloxy-1,3-dioxo-indan-2-yl)-5-isopropyl-phenyl ester], the melting point is reported as 103 to 105 °C and the CC50 ([1]; CC50) is reported as > 100 µg/mL.
With `COc1cc(C(C)C)ccc1C1(O)C(=O)c2ccc([N+](=O)[O-])c(NC(C)=O)c2C1=O` (centres unmarked) [Example 43, N-(2-Hydroxy-2-(4-isopropyl-2-methoxyphenyl)-5-nitro-1,3-dioxo-2,3-dihydro-1H-inden-4-yl)acetamide] the melting point was 199 to 201 °C and the CC50 ([1]; CC50) was 61.7 µg/mL (≈ 150 µM).
In the case of `COc1cc(C(C)C)ccc1C1(NC(N)=O)C(=O)c2ccccc2C1=O` [Example 61, 1-(2,3-Dihydro-2-(4-isopropyl-2-methoxyphenyl)-1,3-dioxo-1H-inden-2-yl)urea], the melting point is reported as 272 to 274 °C and the CC50 ([1]; CC50) is reported as > 117 µg/mL.
Compound `CCC(C)(C)c1ccc(OC(C)=O)c(C2(OC(C)=O)C(=O)c3ccccc3C2=O)c1` [Example 17, 2-(2-Acetoxy-1,3-dioxo-2,3-dihydro-1H-inden-2-yl)-4-tert-pentylphenyl acetate] has a melting point of 146 to 151 °C and a CC50 ([1]; CC50) of 9.3 µg/mL.
For `CCOC(=O)Cc1cc(OC)c(OC(C)=O)c(C2(OC(C)=O)C(=O)c3ccccc3C2=O)c1` [Example 1, Ethyl 2-(4-acetoxy-3-(2-acetoxy-1,3-dioxo-2,3-dihydro-1H-inden-2-yl)-5-methoxyphenyl)acetate], the melting point was 102 to 107 °C and the CC50 ([1]; CC50) was > 100 µg/mL.
Compound `CSc1ccccc1C1(O)C(=O)c2ccccc2C1=O` [Example 57] has a melting point of 191 to 193 °C and a CC50 ([1]; CC50) of 48.2 µg/mL (≈ 170 µM).
With `CC(=O)Oc1ccc(C)nc1C1(OC(C)=O)C(=O)c2ccccc2C1=O` [Example 71, 2-(2-Acetoxy-1,3-dioxo-2,3-dihydro-1H-inden-2-yl)-6-methylpyridin-3-yl acetate] the CC50 ([1]; CC50) was > 100 µg/mL.
Compound `COc1cc(C(C)C)ccc1C1(N=[N+]=[N-])C(=O)c2cccc([N+](=O)[O-])c2C1=O` (centres unmarked) [Example 40, 2-Azido-2-(4-isopropyl-2-methoxyphenyl)-4-nitro-2H-inden-1,3-dione] has a CC50 ([1]; CC50) of 53.2 µg/mL (≈ 140 µM).
`CCC(C)c1ccc(OC(C)=O)c(C2(OC(C)=O)C(=O)c3ccccc3C2=O)c1` (centres unmarked) [Example 13, 2-(2-Acetoxy-1,3-dioxo-2,3-dihydro-1H-inden-2-yl)-4-sec-butylphenyl acetate] showed a melting point of 118 to 120 °C and a CC50 ([1]; CC50) of 7.93 µg/mL.
Work on `CC(=O)Oc1c(C2(OC(C)=O)C(=O)c3ccccc3C2=O)ccc(Cl)c1Cl` [Example 4, 6-(2-Acetoxy-1,3-dioxo-2,3-dihydro-1H-inden-2-yl)-2,3-dichlorophenyl acetate] yielded a melting point of 129 to 136 °C and a CC50 ([1]; CC50) of 50.4 µg/mL.
`CCOC(=O)NC1(c2ccc(C(C)C)cc2OC)C(=O)c2ccccc2C1=O` [Example 64, Ethyl 2-(4-isopropyl-2-methoxyphenyl)-1,3-dioxo-2,3-dihydro-1H-inden-2-ylcarbamate] showed a melting point of 149 to 150 °C and a CC50 ([1]; CC50) of 87.8 µg/mL (≈ 230 µM).
In the case of `CC(=O)Oc1ccc([N+](=O)[O-])cc1C1(OC(C)=O)C(=O)c2ccccc2C1=O` [Example 9, 2-(2-Acetoxy-1,3-dioxo-2,3-dihydro-1H-inden-2-yl)-4-nitrophenyl acetate], the melting point is reported as 163 to 167 °C and the CC50 ([1]; CC50) is reported as > 100 µg/mL.
Work on `COc1cc(C(C)C)ccc1C1(Cl)C(=O)c2cccc([N+](=O)[O-])c2C1=O` (centres unmarked) [Example 39, 2-Chloro-2-(4-isopropyl-2-methoxyphenyl)-4-nitro-2H-inden-1,3-dione] yielded a melting point of 81 to 84 °C and a CC50 ([1]; CC50) of 6.67 µg/mL (≈ 17.8 µM).
With `Cc1cc(NC(=O)C(C)C)c(C2(O)C(=O)c3ccccc3C2=O)cc1C` [Example 90, N-(2-(2-Hydroxy-1,3-dioxo-2,3-dihydro-1H-inden-2-yl)-4,5-dimethylphenyl)isobutyramide] the CC50 ([1]; Picorna-virus CC50) was 38.3 µg/mL (≈ 109 µM).
For `COc1ccc(OC(C)=O)c(C2(OC(C)=O)C(=O)c3ccccc3C2=O)c1` [Example 7, 2-(2-Acetoxy-1,3-dioxo-2,3-dihydro-1H-inden-2-yl)-4-methoxyphenyl acetate], the melting point was 184 to 186 °C and the CC50 ([1]; CC50) was > 100 µg/mL.
In the case of `CC(=O)Oc1cc(C)c(C)c(C)c1C1(OC(C)=O)C(=O)c2ccccc2C1=O` [Example 16, 2-(2-Acetoxy-1,3-dioxo-2,3-dihydro-1H-inden-2-yl)-3,4,5-trimethylphenyl acetate], the melting point is reported as 238 to 242 °C and the CC50 ([1]; CC50) is reported as 8.87 µg/mL.
In the case of `CONC(=O)NC1(c2ccc(C(C)C)cc2OC)C(=O)c2ccccc2C1=O` [Example 63, 1-(2-(4-Isopropyl-2-methoxyphenyl)-1,3-dioxo-2,3-dihydro-1H-inden-2-yl)-3-methoxy urea], the melting point is reported as 153 to 155 °C and the CC50 ([1]; CC50) is reported as > 117 µg/mL.
For `CC(=O)Nc1cc(C)c(C)cc1C1(O)C(=O)c2ccccc2C1=O` [Example 86, N-(2-(2-Hydroxy-1,3-dioxo-2,3-dihydro-1H-inden-2-yl)-4,5-dimethylphenyl)acetamide], the CC50 ([1]; Picorna-virus CC50) was 4.63 µg/mL (≈ 14.3 µM).
With `COc1cc(C(C)C)ccc1C1(O)C(=O)c2c(N)ccc(NC(C)=O)c2C1=O` (centres unmarked) [Example 44, N-(7-Amino-2-hydroxy-2-(4-isopropyl-2-methoxyphenyl)-1,3-dioxo-2,3-dihydro-1H-inden-4-yl)acetamide] the CC50 ([1]; CC50) was > 117 µg/mL.
In the case of `COc1cc(C(C)C)ccc1C1(O)C(=O)c2cccc([N+](=O)[O-])c2C1=O` (centres unmarked) [Example 38, 2-Hydroxy-2-(4-isopropyl-2-methoxyphenyl)-4-nitro-2H-inden-1,3-dione], the CC50 ([1]; CC50) is reported as > 100 µg/mL.
For `O=C1c2ccccc2C(=O)C1(O)c1cc2ncccc2cc1O` [Example 75, 2-Hydroxy-2-(6-hydroxyquinolin-7-yl)-1H-inden-1, 3(2H)-dione], the CC50 ([1]; CC50) was > 100 µg/mL.
With `CCc1ccc(C2(O)C(=O)c3ccccc3C2=O)c(NC(C)=O)c1` [Example 88, N-(5-Ethyl-2-(2-hydroxy-1,3-dioxo-2,3-dihydro-1H-inden-2-yl)phenyl)acetamide] the CC50 ([1]; Picorna-virus CC50) was 4.49 µg/mL (≈ 13.9 µM).
With `CCOC(=O)Oc1cc(C(C)C)ccc1C1(OC(=O)OCC)C(=O)c2cccnc2C1=O` (centres unmarked) [Example 105, ethyl (6-(2-((ethoxycarbonyl)oxy)-4-isopropylphenyl)-5,7-dioxo-6,7-dihydro-5H-cyclopenta[b]pyridin-6-yl)carbonate] the CC50 ([1]; Picorna-virus CC50) was > 100 µg/mL.
For `COc1cc(NC(=O)C(C)C)c(C2(O)C(=O)c3cc(OC)c(OC)cc3C2=O)cc1OC` [Example 108, N-[2-(2-Hydroxy-5,6-dimethoxy-1,3-dioxo-indan-2-yl)-4,5-dimethoxy-phenyl]-isobutyramide], the CC50 ([1]; Picorna-virus CC50) was > 100 µg/mL.
`CCCC(=O)Nc1cc(C)c(C)cc1C1(O)C(=O)c2ccccc2C1=O` [Example 89, N-(2-(2-Hydroxy-1,3-dioxo-2,3-dihydro-1H-inden-2-yl)-4,5-dimethylphenyl)butyramide] showed a CC50 ([1]; Picorna-virus CC50) of 10.7 µg/mL (≈ 30.4 µM).
With `COc1cc(C(C)C)ccc1C1(O)C(=O)c2cccc(N)c2C1=O` (centres unmarked) [Example 41, 4-Amino-2-hydroxy-2-(4-isopropyl-2-methoxyphenyl)-2H-inden-1,3-dione] the melting point was 219 to 220 °C.
In the case of `COc1cccc(C2C(=O)c3ccccc3C2=O)c1` [Example 104, 2-(3-Methoxyphenyl)-2H-inden-1,3-dione], the CC50 ([1]; Picorna-virus CC50) is reported as > 100 µg/mL.
